Laboratory results reported in PMC9874818 (Archiv Der Pharmazie, 2022).
Starred links: 1 amine or outer side, 2 acyl side, 3 side chain; linkers in the order of their positions; H or OH if unused. Residues, ends and D or L forms follow the SMILES beside them. CO = O=C([*:1])[*:2]

Tests used:
[1] = molecular target: TMPRSS2 (human recombinant) (Homo sapiens, UniProt O15393); type: biochemical; conditions: ratio of IC50 values
[2] = molecular target: CATSB (human liver) (Homo sapiens, UniProt P07858); assay: biochemical
[3] = molecular target: CATSL (human liver) (Homo sapiens, UniProt P07711); assay: biochemical
Chain of CATSL (human liver) (P07711 114-333): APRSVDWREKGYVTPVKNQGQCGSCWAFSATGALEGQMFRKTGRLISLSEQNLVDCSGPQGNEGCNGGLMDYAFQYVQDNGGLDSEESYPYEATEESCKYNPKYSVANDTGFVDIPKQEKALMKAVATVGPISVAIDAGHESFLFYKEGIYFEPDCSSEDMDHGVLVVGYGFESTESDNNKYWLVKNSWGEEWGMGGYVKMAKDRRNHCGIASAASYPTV

[4] = molecular target: Furin (human recombinant aa108–715) (Homo sapiens, UniProt P09958); assay: biochemical
Chain of Furin (human recombinant aa108–715) (P09958 108-715): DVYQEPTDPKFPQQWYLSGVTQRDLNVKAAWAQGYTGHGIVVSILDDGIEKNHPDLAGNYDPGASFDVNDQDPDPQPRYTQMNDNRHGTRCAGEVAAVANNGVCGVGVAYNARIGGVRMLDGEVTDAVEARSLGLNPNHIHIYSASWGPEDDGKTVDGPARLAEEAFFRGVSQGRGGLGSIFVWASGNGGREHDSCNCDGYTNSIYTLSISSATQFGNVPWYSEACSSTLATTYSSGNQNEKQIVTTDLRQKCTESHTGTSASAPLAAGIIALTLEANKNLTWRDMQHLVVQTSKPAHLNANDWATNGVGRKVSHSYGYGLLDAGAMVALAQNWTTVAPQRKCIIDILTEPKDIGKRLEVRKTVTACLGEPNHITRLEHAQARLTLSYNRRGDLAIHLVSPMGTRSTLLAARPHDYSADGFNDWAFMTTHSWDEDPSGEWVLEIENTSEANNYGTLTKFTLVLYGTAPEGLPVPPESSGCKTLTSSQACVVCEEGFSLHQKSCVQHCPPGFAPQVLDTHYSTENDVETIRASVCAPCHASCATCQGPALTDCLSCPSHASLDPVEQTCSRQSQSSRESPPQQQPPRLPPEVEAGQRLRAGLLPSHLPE

[5] = cited from earlier work

Chain of TMPRSS2 (human recombinant) (O15393 whole entry): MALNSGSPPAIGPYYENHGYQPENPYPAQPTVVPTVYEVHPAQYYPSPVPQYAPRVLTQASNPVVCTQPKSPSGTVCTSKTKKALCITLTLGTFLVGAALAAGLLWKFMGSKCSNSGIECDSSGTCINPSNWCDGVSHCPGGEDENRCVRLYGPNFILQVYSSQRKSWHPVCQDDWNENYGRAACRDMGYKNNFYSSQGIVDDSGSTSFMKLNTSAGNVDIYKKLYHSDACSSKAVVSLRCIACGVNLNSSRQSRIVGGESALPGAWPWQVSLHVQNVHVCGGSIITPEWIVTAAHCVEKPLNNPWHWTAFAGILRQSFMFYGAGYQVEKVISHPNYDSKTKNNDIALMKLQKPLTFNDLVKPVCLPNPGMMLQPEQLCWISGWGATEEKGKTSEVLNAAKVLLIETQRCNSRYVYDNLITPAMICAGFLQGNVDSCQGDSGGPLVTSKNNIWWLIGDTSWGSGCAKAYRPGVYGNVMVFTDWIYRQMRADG

| Compound | increase in TMPRSS2 potency over BC-11 [1] [fold] | IC50 [2] [nM] | IC50 [3] [nM] | IC50 [4] [nM] | plasma half-life [5] |
| --- | --- | --- | --- | --- | --- |
| CC(C)[C@H](NC(=O)[C@H](CCCNC(=N)N)NC(=O)N[C@@H](Cc1ccccc1)C(=O)O)C(=O)N[C@H](C=O)CCCNC(=N)N [antipain, L‐Phe‐CO‐L‐Arg‐L‐Val‐L‐Arg‐H] ({Phe-CO}-Arg-Val-Arg-aldehyde) | 2 | 24.1 | 2.74 | 4170 | – |
| CN(C)C(=O)COC(=O)Cc1ccc(OC(=O)c2ccc(NC(=N)N)cc2)cc1 [camostat] | – | – | – | – | approximately an hour or less |
| N=C(N)c1ccc2cc(OC(=O)c3ccc(N=C(N)N)cc3)ccc2c1 [nafamostat] | – | – | – | – | approximately an hour or less |
